Measured values as given in patent US20170027951A1, “METHODS AND COMPOSITIONS TO TREAT CANCERS INVOLVING EGFR” (Southern Research Institute, priority 2015, published 2017).

Assays:
RKO cells [1] = test: CellTiter-Glo cell viability assay in RKO cells (WT KRas, express HGF); format: cell-based; settings: FIG. 1A; 96 hours after treatment; gefitinib 5 μM, JNJ 38877605 1 μM, PD184161 0.01, 0.05 or 1 μM
Description: Cell viability assays were conducted using the CellTiter-Glo® Luminescent Cell Viability Assay kit purchased from Promega Corporation (Madison, Wis., US) and used per the manufacturer's protocol. Cells were seeded in 96-well plates at a density of 1×10^4 cells per well and cell viability was assessed at the indicated time points.

RKO cells [2] = test: Clonogenic (colony formation) assay in RKO cells; format: cell-based; settings: FIG. 1B; 10 days after treatment; gefitinib 5 μM, JNJ 38877605 1 μM, PD184161 0.01, 0.05 or 1 μM
Description: (§1) For clonogenic assay cells were seeded in 6-well plates at a density of 400 cells per well and were treated as indicated. After colony formation (8-12 days), cells were stained with crystal violet (0.5% w/v) (see Kueng W., et al., Anal Biochem (1989) 182: 16-19), and the number of colonies was determined using ImageQuant TL software (GE Healthcare Life Sciences, Pittsburgh, Pa., US).
The effect of treatment with gefitinib alone or in combination with an inhibitor of MET kinase activity (using the inhibitor JNJ388777605) or inhibitor of MEK kinase activity (using the inhibitor PD184161) on viability and clonogenic growth was determined in RKO and HT29 cells.

HCT116 cells [3] = test: CellTiter-Glo cell viability assay in HCT116 cells (MT KRas, express HGF); format: cell-based; settings: FIG. 2A; 96 hours after treatment; gefitinib 5 μM, JNJ 38877605 1 μM, PD184161 0.01 or 0.02 μM
Text: Due to the presence of MT KRas, HCT116 cells have activated ERK signaling.

HCT116 cells [4] = test: Clonogenic (colony formation) assay in HCT116 cells; format: cell-based; settings: FIG. 2B; 10 days after treatment; gefitinib 5 μM, JNJ 38877605 1 μM, PD184161 0.01 or 0.02 μM
Description: HCT116 cells, which are MT KRas, were treated with gefitinib (5 μM) in the absence or presence of a MET kinase inhibitor (JNJ 38877605; 1 μM) or a MEKI kinase inhibitor (PD184161; 0.01 μM or 0.02 μM) as indicated.
as §1

DiFi cells = test: Caspase-Glo 3/7 activity assay in DiFi cells with or without CCD-18Co fibroblast conditioned medium; format: cell-based; settings: FIG. 3C, 18 hr post-treatment; for caspase 3/7 activity (apoptosis), single agent: gefitinib 1 μM or JNJ 38877605 1 μM alone, no fibroblast conditioned media
Text: Media were removed and replaced with serum-free MEM.

ERK 1/2 = test: Western blot of ERK 1/2 phosphorylation in RKO cells; format: cell-based; settings: FIG. 1D, gefitinib dose or times post-treatment
Description: Immunoblotting was performed using standard procedures. Nitrocellulose membranes (GE Healthcare Life Sciences, Pittsburgh, Pa.) were blocked with 5% non-fat milk for 1 hour at room temperature, and incubated with primary antibodies overnight at 4° C. Primary antibodies used were anti-p-ERK1/2 (Cell Signaling Technology, Inc., Danvers, Mass., US) and anti-β-actin (Sigma-Aldrich Co. LLC, Saint Louis, Mo., US). Following washing with TBS-T buffer, membranes were incubated with horseradish peroxidase-conjugated secondary antibodies for 1 hour and then washed with TBS-T. Immunoblots were developed using the Amersham Western Blotting ECL chemiluminescent reagents (GE Healthcare Life Sciences, Pittsburgh, Pa., US). Protein loading was normalized by probing blots for the expression of β-actin.

[5] = patients with mCRC, Amado et al. 2008; cited from earlier work

Row | Molecule | effect on RKO cell viability (RKO cells [1]) | effect on clonogenic growth (colony formation) of RKO cells (RKO cells [2]) | effect on HCT116 cell viability (HCT116 cells [3]) | effect on clonogenic growth (colony formation) of HCT116 cells (HCT116 cells [4]) | caspase 3/7 activity (apoptosis), single agent (DiFi cells) | phosphorylation status of ERK 1/2 (p-ERK 1/2 by Western blot) (ERK 1/2) | caspase 3/7 activity (apoptosis) in the presence of fibroblast conditioned media (FIB) (DiFi cells; gefitinib 1 μM, JNJ 38877605 1 μM, CCD-18Co conditioned media) | KRas WT patients who benefit [5]
1 | Cn1cc(-c2ccc3nnc(C(F)(F)c4ccc5ncccc5c4)n3n2)cn1 [JNJ 38877605] | no apparent effect on cell viability | no apparent effect on clonogenic growth | no apparent effect on cell viability | no apparent effect on clonogenic growth | no apparent effect on induction of caspases/apoptosis |  |  | 
2 | COc1cc2ncnc(Nc3ccc(F)c(Cl)c3)c2cc1OCCCN1CCOCC1 [gefitinib] | modest | no apparent effect on clonogenic growth | modestly decreased cell viability | no apparent effect on clonogenic growth | increase in caspase 3/7 activity | an increase in the amount of p-ERK 1/2 | inhibit gefitinib-induced apoptosis | 
3 | PD184161 | no apparent effect on cell viability | no apparent effect on clonogenic growth | no apparent effect on cell viability | no apparent effect on clonogenic growth |  |  |  | 
4 | panitumumab |  |  |  |  |  |  |  | 17%
